{
  "source": "patent US20200306204A1",
  "about": "“TRANSDERMAL DELIVERY SYSTEM COMPRISING BUPRENORPHINE” (LTS Lohmann Therapie-Systeme AG, priority 2011, published 2020)",
  "test": "Solubility",
  "data": [
    {"smiles": "CO[C@]12CC[C@@]3(C[C@@H]1[C@](C)(O)C(C)(C)C)[C@H]1Cc4ccc(O)c5c4[C@@]3(CCN1CC1CC1)[C@H]2O5", "note": "[Buprenorphine, (5R,6R,7R,9R,13S,14S)-17-Cyclopropylmethyl-7-[(S)-3,3-dimethyl-2-hydroxybutan-2-yl]-6-methoxy-4,5-epoxy-6,14-ethanomorphinan-3-ol]", "values": [
      {"measurement": "Solubility in polysiloxanes", "value": "extremely low solubility"}
    ]}
  ]
}
